For 26 compounds, TGI and GI50 results are on record in PubChem BioAssay (NCI).

Structures are written as SMILES. Several values for one entry are separate records, joined by “and”; a condition that tells them apart may be missing. Equal values may be shown once.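 48-hour exposure; five concentrations; linearly interpolated endpoints. GI50 is the concentration that inhibits growth by half. The concentration for full growth arrest is given as TGI.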

Test in all cases: NCI tumour cell line growth inhibition, 48 h
For test [1], the system named is HCC-2998 colon.
Test [2] relates to SNB-75 CNS.
Test [3] has as its system MCF7 breast.
Test [4] relates to A549 NSCLC.
The subject of test [5] is OVCAR-8 ovarian.
Test [6] relates to M14 melanoma.
Test [7] deals with NCI-H460 lung.
The test system of test [8] is U251 CNS.
Test [9] has as its system TK-10 renal.
Test [10] relates to MOLT-4 leukemia.

In the case of `CCCCOC(C)(C)/C=C/C(O)[C@](C)(O)[C@H]1[C@H](O)C[C@@]2(C)[C@@H]3CCc4c(cc(OC5OC(CO)C(O)C(O)C5O)c(O)c4C)C3(C)C(=O)C[C@]12C` (stereo not given in full), the TGI in [1], in test [2], in test [3], in test [4], in test [5] and in test [6] was above 100 µM each time. Moreover, the TGI in test [7], in [8], in test [9] and in test [10] was above 100 µM throughout.
Regarding `O=C(O)[C@@H]1C[C@@H](O)CN1C(=O)OCc1ccccc1`, the TGI in test [1], in [2], in test [3], in [4], in [5] and in test [6] was above 100 µM in each case. The TGI in [7], in test [8], in test [9] and in test [10] was above 100 µM in each case.
As for `Nn1c(CCCCCCCCc2nnc(COc3c(O)ccc4ccccc34)n2N)nnc1COc1c(O)ccc2ccccc12`, the TGI in test [1], in [2], in [3], in test [4], in test [6] and in test [7] was above 100 µM throughout. Moreover, the TGI in test [8], in test [9] and in [10] was above 100 µM in each case.
Regarding `C=C1C(O)C2(O)OCC34C(CC5C(C)=CC(=O)C(O)C5(C)C23)OC(=O)C(OC(=O)C/C=C(\C)CCCCC)C14` (stereo not given), the GI50 in test [1] is below 0.001 µM; in [2], below 0.001 µM; in [3], below 0.001 µM; in [4], 0.00137 µM; in test [5], below 0.001 µM; in test [7], below 0.001 µM. For the same compound, the values for the GI50 in test [8], in test [9] and in test [10] were below 0.001 µM, 0.0239 µM and below 0.001 µM, respectively. Also, the TGI is 0.00222 µM and 0.019 µM in test [1]; 0.00366 µM and 0.0278 µM in [2]; 0.0233 µM and 0.0698 µM and 0.0535 µM in test [4]; 0.00565 µM and 0.0192 µM and 0.0188 µM in test [5]; 0.00141 µM in test [6]; 0.0119 µM and 0.0865 µM in test [9].
Regarding `CCOC(=O)c1[nH]cc(C)c1-c1ccn(-c2ccccc2)c1`, the TGI in [1] was above 100 µM; in [2] it was 49.5 µM; in test [3], above 100 µM; in [4] it was above 100 µM; in test [5], above 100 µM; in test [6], above 100 µM. The TGI in test [7] was above 100 µM; in [8], above 100 µM; in [9], above 100 µM; in [10] it was 65.2 µM.
Take `COc1ccc2c(c1)O/C(=C\c1cccc(OCC(=O)Nc3nc4c(s3)CCCC4)c1)C2=O`: the GI50 in test [1] is above 100 µM; in test [2] it was 11.5 µM; in [3] it was 12.8 µM; in test [4], 29 µM; in test [5], above 21.7 µM; in [6], above 100 µM. The GI50 in test [7] was above 100 µM; in test [8], 2.8 µM; in [9], above 100 µM; in test [10], 4.5 µM. Moreover, the TGI was above 100 µM in [1]; 54.9 µM in [2]; above 100 µM in test [3]; above 100 µM in test [4]; above 70.4 µM in test [5]; above 100 µM in [6]. The TGI in test [7] was above 100 µM; in [8] it was 8.31 µM; in [9] it was above 100 µM; in test [10], 98.7 µM.
`CCOC1CC(=O)c2c(Br)sc(Br)c21` (stereo not given): the TGI in [1] amounted to 36.9 µM; in test [2], 35.7 µM; in test [3] it was 40.5 µM; in test [4], 95.1 µM; in test [5], 38.5 µM; in [6], 36.2 µM. In addition, the TGI was 43.1 µM in [7], 33.1 µM in test [8], 46.4 µM in test [9] and 35.1 µM in [10].
Regarding `O=C(CN1CCCCC1)CC(O)(C(F)(F)F)C(F)(F)F`, the TGI in test [1], in [2], in [3], in [4], in [5] and in test [6] was above 100 µM throughout. In addition, the TGI in [7], in test [8] and in [9] was above 100 µM in each case.
With `O=c1cc(/C=C/c2ccc(O)c(O)c2)oc(/C=C/c2ccc(O)c(O)c2)c1`, the TGI in [1] is 6.92 µM; in [2], 15.3 µM; in [3], 30.8 µM; in test [4], 37.1 µM; in test [5], 22.4 µM; in test [6] it was 16.5 µM. Moreover, the TGI in test [7] worked out at 21.2 µM; in test [8] it was 9.57 µM; in test [9] it was 19.4 µM; in [10] it was 19.9 µM.
With `O=C1c2ccccc2CN1c1ccc(O)cc1`, the TGI in test [1], in [3], in [4], in test [5], in test [6] and in test [7] was above 100 µM throughout. Moreover, the TGI in test [8], in test [9] and in test [10] was above 100 µM in each case.
In the case of `O=[N+]([O-])C(=C(N1CCCCC1)N1CCCCC1)/C(Cl)=C(\Cl)Br`, the TGI in test [1] is 32.3 µM; in test [2], 34.4 µM; in [3] it was 88.9 µM; in test [4], above 100 µM; in test [5] it was 35 µM; in test [6], 59.1 µM. For the same compound, the TGI was above 100 µM in test [7], 56.3 µM in test [8], 72 µM in test [9] and 57.3 µM in [10].
On to `C/C(N=Nc1nc2ccccc2s1)=C1/C=CC=CN1O`, for which the TGI in [1] was 0.0978 µM; in test [3] it was 60.5 µM; in test [4] it was above 100 µM; in test [5], above 100 µM; in test [6], above 100 µM; in test [7] it was above 100 µM. In addition, the figures for the TGI in [8], in test [9] and in test [10] were above 100 µM, 61.3 µM and above 100 µM, respectively.
Regarding `CSCCC(NCc1c(O)ccc2c(-c3ccccc3)cc(=O)oc12)C(=O)O` (stereo not given), the TGI in [1], in test [2], in test [3], in [4], in [5] and in test [6] was above 100 µM in each case. Further, the TGI in test [7], in test [8], in test [9] and in test [10] was above 100 µM each time.
On to `CC(C)=CCc1c2c(c3occ(-c4ccc(O)c(O)c4)c(=O)c3c1O)C=CC(C)(C)O2`, for which the TGI is 2.45 µM in [1]; 8.51 µM in [2]; 11.4 µM in [3]; 7.6 µM in [4]; 9.31 µM in [5]; 3.5 µM in test [6]. The TGI came to 3.21 µM in test [7], 2.8 µM in test [8], 3.67 µM in test [9] and 1.43 µM in test [10].
On to `N#Cc1c(-c2ccccc2)/c(=C\Nc2ccc(Cl)cc2)c(=O)n2c1nc1ccccc12`, for which the TGI in [1], in [2], in test [3], in [4], in test [5] and in [6] was above 100 µM throughout. Moreover, the TGI in test [7], in [8] and in [9] was above 100 µM throughout.
In the case of `CCCCCCCCCC[C@H](O)[C@H]1CC[C@H]([C@H]2CC[C@H]([C@H](O)CC[C@H](O)CCCCCCC[C@@H](O)CC3=C[C@H](C)OC3=O)O2)O1`, the TGI in [1] is above 100 µM; in [2], 79.7 µM; in test [3] it was above 100 µM; in test [4], above 100 µM; in test [5], above 100 µM; in test [6], above 100 µM. The TGI is above 100 µM in test [7], above 100 µM in [8], above 100 µM in test [9] and 80.1 µM in test [10]. In addition, the GI50 in test [3] was 3.98 µM; in test [4] it was 7.18 µM; in test [8], above 100 µM; in [10], 19.9 µM.
Turning to `CC(=O)OC(C)c1cc2c(s1)C(=O)c1sccc1C2=O` (stereo not given), the TGI is 3.54 µM in test [1]; 2.63 µM in [2]; 3.9 µM in [3]; 5.29 µM in [4]; 4.66 µM in test [5]; 0.389 µM in test [6]. For the same compound, the TGI is 2.36 µM in test [7], 4.4 µM in test [8], 3.86 µM in [9] and above 23.6 µM in test [10].
With `COc1ccc(N2C(=O)c3c4c(c5c([nH]c6ncccc65)c3C2=O)CCC(C(C)(C)C)C4)cc1` (stereo not given), the TGI was above 100 µM in test [1]; 32.8 µM in [2]; above 100 µM in test [3]; above 100 µM in [4]; above 100 µM in test [5]; above 100 µM in [6]. Besides, the figures for the TGI in [7], in test [8] and in test [9] were above 100 µM, 98 µM and above 100 µM, respectively.
Turning to `O=C1CCC(=Nc2ccc(Cl)cc2)N1C(=O)COc1ccc(OCC(=O)N2C(=O)CSC2=Nc2ccc(Cl)cc2)cc1`, the TGI in test [1] was above 100 µM; in test [2], 91.9 µM; in test [3], above 100 µM; in test [4], above 100 µM; in test [5], above 100 µM; in test [6], above 100 µM. For the same compound, the TGI in test [7], in test [8] and in test [9] was above 100 µM each time.
In the case of `C=C(Cl)/C(=C\Cl)CCC(Br)C(C)C` (stereo not given), the TGI in [1], in test [2], in test [3], in test [4], in [6] and in test [7] was above 100 µM throughout. Further, the TGI in [8], in test [9] and in [10] was above 100 µM throughout.
Turning to `C1CCSCCCCSCCCCSCCCCSC1`, the TGI in test [1], in [2], in test [3], in [4], in [5] and in [6] was above 100 µM throughout. Besides, the TGI in [7], in test [8] and in test [9] was above 100 µM each time.
Regarding `COc1cc2c(cc1OCCCCOc1cc(-c3ccc(F)cc3)nc(C)n1)N=C[C@@H]1CCCN1C2=O`, the TGI in [1] amounted to 0.689 µM; in [2], 17.8 µM; in [3], 15.2 µM; in test [4], 10.8 µM; in test [5], 6.6 µM; in [6] it was 1.87 µM. For the same compound, the results for the TGI in test [8], in test [9] and in test [10] were 2.55 µM, 0.487 µM and 0.279 µM, respectively.
In the case of `N#Cc1nc(-c2cc([N+](=O)[O-])cc([N+](=O)[O-])c2)oc1N`, the TGI in [1], in test [2], in test [3], in [4], in [5] and in [6] was above 10 µM each time. Moreover, the TGI in [7], in test [9] and in test [10] was above 10 µM each time.
For the compound `NC(CSCc1ccccc1)C(=O)O` (stereo not given), the TGI in [1], in test [2], in test [3], in test [4], in test [5] and in [6] was above 100 µM each time. For the same compound, the TGI in test [7], in test [8] and in test [9] was above 100 µM in each case.
As for `Cc1nn(C(=O)Cc2ccccc2)c2c1C(c1ccccc1O)SC(N)=N2` (stereo not given), the TGI in [1], in [2], in test [3], in [4], in test [5] and in test [6] was above 100 µM each time. Also, the TGI in [7], in test [9] and in test [10] was above 100 µM in each case.
Turning to `CN(C)c1ccc(-c2c(C#N)c(S)n(NS(=O)(=O)c3ccccc3)c(=O)c2C#N)cc1`, the TGI in test [1] is above 100 µM; in [2], above 100 µM; in [3] it was above 100 µM; in test [4] it was above 100 µM; in test [5], 56.8 µM; in [6], above 100 µM. In addition, the TGI in test [8] was above 100 µM; in test [9], 41.4 µM; in [10] it was above 100 µM.
